Measured values from patent publication US10336709B2, “Lp-PLA2 inhibitors” (ABIDE THERAPEUTICS, INC., priority 2015, dated 2019).

Columns and labels:
[1] = biological target: T1, Lp-PLA2 (Mus musculus, UniProt Q60963); assay: In vitro competitive activity-based protein profiling (HT-01 probe, gel band PLA2G7); assay type: biochemical; design: Lp-PLA2 % at 100 μM: scale not given here; conditions: mouse brain membrane proteomes; for IC50: 30 min preincubation at 37° C
T1 construct: Mouse brain membrane proteomes (50 μL, 1.0 mg/mL total protein concentration) were preincubated; from tissue; host or cells: mouse brain membrane fraction
T1 sequence (Q60963 22-440): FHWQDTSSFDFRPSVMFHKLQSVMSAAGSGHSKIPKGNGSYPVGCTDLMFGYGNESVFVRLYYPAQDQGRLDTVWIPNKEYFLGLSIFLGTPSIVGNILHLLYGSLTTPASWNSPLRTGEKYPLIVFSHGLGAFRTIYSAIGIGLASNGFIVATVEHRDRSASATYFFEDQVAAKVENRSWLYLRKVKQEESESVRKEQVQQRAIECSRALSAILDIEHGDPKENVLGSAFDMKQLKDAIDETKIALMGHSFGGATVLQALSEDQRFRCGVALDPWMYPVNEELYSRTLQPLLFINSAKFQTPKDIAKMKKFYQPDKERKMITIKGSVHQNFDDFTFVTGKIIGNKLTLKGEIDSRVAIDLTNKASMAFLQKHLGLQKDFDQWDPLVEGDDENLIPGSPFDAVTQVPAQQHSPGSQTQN
Procedure: (§1) Compounds are tested to assess their Lp-PLA2 and serine hydrolase activity using the following in vitro assays.
(§2) In Vitro Competitive Activity-Based Protein Profiling
(§3) Mouse brain membrane proteomes (50 μL, 1.0 mg/mL total protein concentration) were preincubated with varying concentrations of inhibitors at 37° C. After 30 min, HT-01 probe (1.0 μL, 50 μM in DMSO) was added and the mixture was incubated for another 30 min at room temperature. Reactions were quenched with SDS loading buffer (15 μL-4×) and run on SDS-PAGE gels. Following gel imaging, serine hydrolase activity was determined by measuring fluorescent intensity of gel bands corresponding to PLA2G7 and ABHD6 using ImageJ 1.49 k software.

[2] = biological target: T2, ABHD6 (Mus musculus, UniProt Q8R2Y0); assay: In vitro competitive activity-based protein profiling (HT-01 probe, gel band ABHD6); assay type: biochemical; design: ABHD6 % at 100 μM: scale not given here; conditions: mouse brain membrane proteomes; for IC50: 30 min preincubation at 37° C
T2 construct: Mouse brain membrane proteomes (50 μL, 1.0 mg/mL total protein concentration) were preincubated; from tissue; host or cells: mouse brain membrane fraction
T2 sequence (Q8R2Y0 1-336): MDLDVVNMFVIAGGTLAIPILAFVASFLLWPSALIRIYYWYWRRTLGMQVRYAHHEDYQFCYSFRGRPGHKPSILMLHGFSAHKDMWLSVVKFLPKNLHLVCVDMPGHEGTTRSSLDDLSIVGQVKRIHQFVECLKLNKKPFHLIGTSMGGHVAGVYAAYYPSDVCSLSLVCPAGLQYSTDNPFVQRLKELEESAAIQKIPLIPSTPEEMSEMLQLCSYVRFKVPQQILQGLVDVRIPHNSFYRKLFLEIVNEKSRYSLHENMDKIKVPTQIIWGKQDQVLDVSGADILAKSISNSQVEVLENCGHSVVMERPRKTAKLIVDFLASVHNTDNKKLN
Procedure: as §1, §2, §3

IC50 [1]	IC50 [2]	Compound	other results
< 100 nM	< 100 nM	O=C(ON1C(=O)N[C@H](Cc2ccccc2)C1=O)N1CCN(c2cccc(C(=O)N3CCOCC3)c2Cl)CC1 [Example 12, (R)-4-benzyl-2,5-dioxoimidazolidin-1-yl 4-(2-chloro-3-(morpholine-4-carbonyl)phenyl)piperazine-1-carboxylate]	–
< 100 nM	< 100 nM	O=C(ON1C(=O)N[C@H](Cc2ccccc2)C1=O)N1CCN(c2cccc(C(=O)N3CCCCC3)c2Cl)CC1 [Example 11, (R)-4-benzyl-2,5-dioxoimidazolidin-1-yl 4-(2-chloro-3-(piperidine-1-carbonyl)phenyl)piperazine-1-carboxylate]	–
< 100 nM	< 100 nM	O=C(ON1C(=O)N[C@H](Cc2ccccc2)C1=O)N1CCN(c2cccc(C(=O)N3CCCC3)c2Cl)CC1 [Example 10, (R)-4-benzyl-2,5-dioxoimidazolidin-1-yl 4-(2-chloro-3-(pyrrolidine-1-carbonyl)phenyl)piperazine-1-carboxylate]	–
< 100 nM	< 100 nM	CN1CCN(C(=O)c2cccc(N3CCN(C(=O)ON4C(=O)N[C@@H](Cc5ccccc5)C4=O)CC3)c2Cl)CC1 [Example 14, (S)-4-benzyl-2,5-dioxoimidazolidin-1-yl 4-(2-chloro-3-(4-methylpiperazine-1-carbonyl)phenyl)piperazine-1-carboxylate]	–
< 100 nM	100 to 1000 nM	O=C(ON1C(=O)N[C@@H](Cc2ccccc2)C1=O)N1CCN(c2cccc(C(=O)N3CCOCC3)c2Cl)CC1 [Example 9, (S)-4-benzyl-2,5-dioxoimidazolidin-1-yl 4-(2-chloro-3-(morpholine-4-carbonyl)phenyl)piperazine-1-carboxylate]	–
100 to 1000 nM	100 to 1000 nM	CC(C)[C@@H]1NC(=O)N(OC(=O)N2CCN(c3cccc(C(=O)N4CCOCC4)c3Cl)CC2)C1=O [Example 3, (S)-4-isopropyl-2,5-dioxoimidazolidin-1-yl 4-(2-chloro-3-(morpholine-4-carbonyl)phenyl)piperazine-1-carboxylate]	–
< 100 nM	< 100 nM	CN1C(=O)N(OC(=O)N2CCN(c3cccc(C(=O)N4CCCCC4)c3Cl)CC2)C(=O)[C@@H]1Cc1ccccc1 [Example 20, (S)-4-benzyl-3-methyl-2,5-dioxoimidazolidin-1-yl 4-(2-chloro-3-(piperidine-1-carbonyl)phenyl)piperazine-1-carboxylate]	–
–	–	O=C(ON1C(=O)N[C@@H](Cc2ccc(Cl)cc2)C1=O)N1CCN(c2cccc(C(=O)N3CCCCC3)c2Cl)CC1 [Example 23, (S)-4-(4-chlorobenzyl)-2,5-dioxoimidazolidin-1-yl 4-(2-chloro-3-(piperidine-1-carbonyl)phenyl)piperazine-1-carboxylate]	Lp-PLA2 % at 100 μM [1]: 50% at 100 μM; ABHD6 % at 100 μM [2]: 50% at 100 μM
< 100 nM	< 100 nM	O=C(ON1C(=O)N[C@@H](Cc2ccccc2)C1=O)N1CCN(c2cccc(C(=O)N3CCCCC3)c2)CC1 [Example 13, (S)-4-benzyl-2,5-dioxoimidazolidin-1-yl 4-(3-(piperidine-1-carbonyl)phenyl)piperazine-1-carboxylate]	–
–	100 to 1000 nM	CC(C)[C@H]1NC(=O)N(OC(=O)N2CCN(c3cccc(C(=O)N4CCCC4)c3Cl)CC2)C1=O [Example 4, (R)-4-isopropyl-2,5-dioxoimidazolidin-1-yl 4-(2-chloro-3-(pyrrolidine-1-carbonyl)phenyl)piperazine-1-carboxylate]	inhibition at 10 µM [1]: 75%
< 100 nM	< 100 nM	COc1ccc(C[C@@H]2NC(=O)N(OC(=O)N3CCN(c4cccc(C(=O)N5CCCCC5)c4Cl)CC3)C2=O)cc1 [Example 24, (S)-4-(4-methoxybenzyl)-2,5-dioxoimidazolidin-1-yl 4-(2-chloro-3-(piperidine-1-carbonyl)phenyl)piperazine-1-carboxylate]	–
–	100 to 1000 nM	CC(C)[C@H]1NC(=O)N(OC(=O)N2CCN(c3cccc(C(=O)N4CCOCC4)c3Cl)CC2)C1=O [Example 6, (R)-4-isopropyl-2,5-dioxoimidazolidin-1-yl 4-(2-chloro-3-(morpholine-4-carbonyl)phenyl)piperazine-1-carboxylate]	inhibition at 10 µM [1]: 75%
< 100 nM	< 100 nM	CN(C)C(=O)c1cccc(N2CCN(C(=O)ON3C(=O)N[C@@H](Cc4ccccc4)C3=O)CC2)c1Cl [Example 16, (S)-4-benzyl-2,5-dioxoimidazolidin-1-yl 4-(2-chloro-3-(dimethylcarbamoyl)phenyl)piperazine-1-carboxylate]	–
< 100 nM	< 100 nM	O=C(ON1C(=O)N[C@@H](Cc2ccc(C(F)(F)F)cc2)C1=O)N1CCN(c2cccc(C(=O)N3CCCCC3)c2Cl)CC1 [Example 22, (S)-2,5-dioxo-4-(4-(trifluoromethyl)benzyl)imidazolidin-1-yl 4-(2-chloro-3-(piperidine-1-carbonyl)phenyl)piperazine-1-carboxylate]	–
< 100 nM	100 to 1000 nM	O=C(ON1C(=O)N[C@@H](Cc2ccccc2)C1=O)N1CCN(c2cccc(C(=O)N3CCCCC3)c2Cl)CC1 [Example 8, (S)-4-benzyl-2,5-dioxoimidazolidin-1-yl 4-(2-chloro-3-(piperidine-1-carbonyl)phenyl)piperazine-1-carboxylate]	–
100 to 1000 nM	< 100 nM	CC(C)[C@@H]1NC(=O)N(OC(=O)N2CCN(c3cccc(C(=O)N4CCCC4)c3Cl)CC2)C1=O [Example 1, (S)-4-isopropyl-2,5-dioxoimidazolidin-1-yl 4-(2-chloro-3-(pyrrolidine-1-carbonyl)phenyl)piperazine-1-carboxylate]	–
100 to 1000 nM	100 to 1000 nM	CC(C)[C@@H]1NC(=O)N(OC(=O)N2CCN(c3cccc(C(=O)N4CCCCC4)c3Cl)CC2)C1=O [Example 2, (S)-4-isopropyl-2,5-dioxoimidazolidin-1-yl 4-(2-chloro-3-(piperidine-1-carbonyl)phenyl)piperazine-1-carboxylate]	–
–	–	NC(=O)c1cccc(N2CCN(C(=O)ON3C(=O)N[C@@H](Cc4ccccc4)C3=O)CC2)c1Cl [Example 18, (S)-4-benzyl-2,5-dioxoimidazolidin-1-yl 4-(3-carbamoyl-2-chlorophenyl)piperazine-1-carboxylate]	Lp-PLA2 % at 100 μM [1]: 25% at 100 μM; ABHD6 % at 100 μM [2]: 25% at 100 μM
< 100 nM	< 100 nM	O=C(ON1C(=O)N[C@@H](Cc2ccccc2)C1=O)N1CCN(c2ccc(C(=O)N3CCCCC3)cc2Cl)CC1 [Example 15, (S)-4-benzyl-2,5-dioxoimidazolidin-1-yl 4-(2-chloro-4-(piperidine-1-carbonyl)phenyl)piperazine-1-carboxylate]	–
> 1000 nM	> 1000 nM	O=C(O)c1cccc(N2CCN(C(=O)ON3C(=O)N[C@@H](Cc4ccccc4)C3=O)CC2)c1Cl [Example 19, (S)-3-(4-((4-benzyl-2,5-dioxoimidazolidin-1-yloxy)carbonyl)piperazin-1-yl)-2-chlorobenzoic acid]	–
< 100 nM	< 100 nM	O=C(ON1C(=O)N[C@@H](Cc2ccccc2)C1=O)N1CCN(c2cccc(C(=O)N3CCCC3)c2Cl)CC1 [Example 7, (S)-4-benzyl-2,5-dioxoimidazolidin-1-yl 4-(2-chloro-3-(pyrrolidine-1-carbonyl)phenyl)piperazine-1-carboxylate]	–
–	–	O=C(ON1C(=O)N[C@@H](Cc2ccccc2)C1=O)N1CCCN(c2cccc(C(=O)N3CCCCC3)c2Cl)CC1 [Example 21, (S)-4-benzyl-2,5-dioxoimidazolidin-1-yl 4-(2-chloro-3-(piperidine-1-carbonyl)phenyl)-1,4-diazepane-1-carboxylate]	inhibition at 10 µM [1]: 100%; inhibition at 10 µM ([2]; at 10 μM): 100%
–	100 to 1000 nM	CC(C)[C@H]1NC(=O)N(OC(=O)N2CCN(c3cccc(C(=O)N4CCCCC4)c3Cl)CC2)C1=O [Example 5, (R)-4-isopropyl-2,5-dioxoimidazolidin-1-yl 4-(2-chloro-3-(piperidine-1-carbonyl)phenyl)piperazine-1-carboxylate]	inhibition at 10 µM [1]: 75%
< 100 nM	< 100 nM	O=C(ON1C(=O)N[C@@H](Cc2ccccc2)C1=O)N1CCN(c2cc(C(=O)N3CCCCC3)ccc2Cl)CC1 [Example 17, (S)-4-benzyl-2,5-dioxoimidazolidin-1-yl 4-(2-chloro-5-(piperidine-1-carbonyl)phenyl)piperazine-1-carboxylate]	–
